# Measured values: ChEMBL document CHEMBL4402577, “Discovery and Optimization of a Compound Series Active against Trypanosoma cruzi, the Causative Agent of Chagas Disease” (J Med Chem, 2020)
# How the values were obtained:
# Trypanosoma cruzi = test: Antitrypanosomal activity against Trypanosoma cruzi Tulahuen strain C2C4 trypomastigotes infected in rat L6 cells incubated for 96 hrs by photometric method based assay; format: functional, organism-based; details: Tulahuen strain C2C4, L6, 96 h
# L6 = test: Cytotoxicity against rat L6 cells incubated for 70 hrs by resazurin dye based assay; format: cell-based; details: L6, 70 h
# [1] = Selectivity ratio, EC50 for cytotoxicity against rat L6 cells to EC50 for antitrypanosomal activity against Trypanosoma cruzi Tulahuen strain C2C4 trypomastigotes infected in rat L6 cells; format: toxicity, cell-based; details: read-out: Ratio EC50
# [2] = Kinetic aqueous solubility of compound in DMSO by nephelometric analysis; format: physicochemical; details: read-out: Kinetic_solubility
# [3] = Intrinsic clearance in CD1 mouse liver microsomes at 0.5 uM measured up to 30 mins in presence of NADPH by UPLC-MSMS analysis; format: ADME, Microsome; details: 0.5 h
SMILES,EC50 (Trypanosoma cruzi) [µM],solubility kinetic [2] [µM],intrinsic clearance [3] [mL/min/g],EC90 (Trypanosoma cruzi) [µg/mL],EC50 (L6) [µM],selectivity ratio [1]
CC[C@H]1CC[C@@H](n2c(=O)[nH]c3ncc(NC(C)=O)cc3c2=O)CC1,0.33,48,2.7,,48,150
CC(=O)Nc1ccc2[nH]c(=O)n([C@H]3CC[C@H](C(C)(C)O)CC3)c(=O)c2c1,139,130,,,136,0.98
CC(=O)Nc1ccc2[nH]c(=O)n([C@H]3CC[C@H](OC(C)(C)C)CC3)c(=O)c2c1,3.5,,< 0.5,,123,35
CC(C)(C)[C@H]1CC[C@@H](n2c(=O)[nH]c3ncc(N)cc3c2=O)CC1,0.24,,1.6,,44,183
CC(=O)Nc1ccc2[nH]c(=O)n([C@H]3CO[C@H](C(C)(C)C)OC3)c(=O)c2c1,0.58,,< 0.5,,27,47
CC(=O)Nc1ccc2[nH]c(=O)n([C@H]3CCO[C@@H](C(C)(C)C)C3)c(=O)c2c1 (racemic),2.1,,16,,125,60
CC(=O)Nc1ccc2[nH]c(=O)n([C@H]3CC[C@H](OC(C)C)CC3)c(=O)c2c1,3.1,,< 0.5,,136,44
CC[C@H]1CC[C@H](n2c(=O)[nH]c3ncc(NC(C)=O)cc3c2=O)CC1,0.3,22,0.5,,215,720
CC[C@H]1CC[C@H](n2c(=O)[nH]c3ncc(N)cc3c2=O)CC1,0.34,55,0.9,,51,150
CC(=O)Nc1cnc2[nH]c(=O)n([C@H]3CC[C@H](C(C)(C)C)CC3)c(=O)c2c1,0.84,310,1.4,,67,80
CC(=O)Nc1ccc2[nH]c(=O)n([C@H]3CO[C@@H](C(C)(C)C)OC3)c(=O)c2c1,6.4,> 270,7.2,,183,29
CC(=O)Nc1ccc2[nH]c(=O)n([C@H]3CC[C@@H](C(C)C)CC3)c(=O)c2c1,0.2,,26,,41,210
CC(=O)Nc1cnc2[nH]c(=O)n(CCC3CCCCC3)c(=O)c2c1,2.3,97,,,130,57
CC[C@H]1CC[C@@H](n2c(=O)[nH]c3ccc(N)cc3c2=O)CC1,0.33,> 350,5.2,1.2,52,160
CC(=O)Nc1ccc2[nH]c(=O)n([C@H]3CC[C@H](C(F)(F)F)CC3)c(=O)c2c1,0.35,,< 0.5,,9.5,27
CC(=O)Nc1ccc2[nH]c(=O)n(CCCc3ccccc3)c(=O)c2c1,7.5,,,,134,18
CC(=O)Nc1ccc2[nH]c(=O)n(C3CCCCC3)c(=O)c2c1,4.2,,,,70,17
CC(=O)Nc1ccc2[nH]c(=O)n(C3CCCC3)c(=O)c2c1,12,,,,184,15
CC(=O)Nc1ccc2[nH]c(=O)n(C3CCN(C(=O)OC(C)(C)C)C3)c(=O)c2c1 (racemic),54,,,,170,3.1
CC(C)(C)[C@H]1CC[C@H](n2c(=O)[nH]c3ncc(N)cc3c2=O)CC1,0.66,,0.5,,63,95
CC(=O)Nc1ccc2[nH]c(=O)n([C@H](C)C3CCCCC3)c(=O)c2c1,2.2,,,,88,40
CC(=O)Nc1ccc2[nH]c(=O)n(-c3ccc(C(C)(C)C)cc3)c(=O)c2c1,4.3,,,,17,4
COCCn1c(=O)[nH]c2ccc(NC(C)=O)cc2c1=O,35,,,,0.1,0.003
CC(=O)Nc1ccc2[nH]c(=O)n(C3CCC(C)CC3)c(=O)c2c1 (mixture of isomers),1.4,,,,54,39
CC(C)(C)[C@H]1CC[C@@H](n2c(=O)[nH]c3ccc(N)cc3c2=O)CC1,,240,3.9,,,

# Now from value to compound, other results behind:
EC50 (Trypanosoma cruzi) [µM],solubility kinetic [2] [µM],intrinsic clearance [3] [mL/min/g],EC90 (Trypanosoma cruzi) [µg/mL],SMILES,EC50 (L6) [µM],selectivity ratio [1]
0.18,128,3.7,,CC(=O)Nc1ccc2[nH]c(=O)n(C3CCC(C)(C)CC3)c(=O)c2c1,12,67
0.12,,4.2,,CC[C@H]1CC[C@H](n2c(=O)[nH]c3ccc(N)cc3c2=O)CC1,32,270
0.02,102,19,,CCC[C@H]1CC[C@@H](n2c(=O)[nH]c3ccc(NC(C)=O)cc3c2=O)CC1,14,700
0.022,131,3.2,,CC(=O)Nc1ccc2[nH]c(=O)n([C@H]3CC[C@H](C(C)(C)C)CC3)c(=O)c2c1,3.9,180
0.02,,31,,CC(=O)Nc1ccc2[nH]c(=O)n(C3CCC(C(C)(C)C)C3)c(=O)c2c1 (racemic),41,2100
0.058,115,2.4,,CC[C@H]1CC[C@H](n2c(=O)[nH]c3ccc(NC(C)=O)cc3c2=O)CC1,14,240
0.017,95,< 0.5,,CC(=O)Nc1ccc2[nH]c(=O)n([C@H]3CC[C@@H](C(C)(C)C)CC3)c(=O)c2c1,5,290
0.015,47,1.5,,CCC[C@H]1CC[C@H](n2c(=O)[nH]c3ccc(NC(C)=O)cc3c2=O)CC1,11,730
0.085,73,12,,CC[C@H]1CC[C@@H](n2c(=O)[nH]c3ccc(NC(C)=O)cc3c2=O)CC1,39,460
0.12,25,1.9,,CC(C)[C@H]1CC[C@H](n2c(=O)[nH]c3ncc(N)cc3c2=O)CC1,46,380
0.061,,1.4,,CC(=O)Nc1cnc2[nH]c(=O)n([C@H]3CC[C@H](C(C)C)CC3)c(=O)c2c1,32,520
